Measured values taken from ChEMBL document CHEMBL1124045, “Synthesis and antiviral evaluation of carbocyclic analogues of 2'-azido- and 2'-amino-2'-deoxycytidine” (1988).
Active and inactive are the calls of the source. No cut-off for these calls is given here.

Assays:
[1] = tested on: Human alphaherpesvirus 1; assay: Antiviral activity in vitro against Herpes simplex virus type 1 (HSV-1); NA is not active uM; format: functional, organism-based
[2] = tested on: Human alphaherpesvirus 1; assay: Antiviral activity in vitro against Herpes simplex virus type 1 (HSV-1); format: functional; conditions: read-out: ED50 (the source's name)

Row | Structure (SMILES) | ED50 [1] | EC50 [2] [µM]
1 | [N-]=[N+]=N[C@@H]1C(n2ccc(N)nc2=O)CC(CO)[C@@H]1O (some centres not stated) | inactive | 
2 | Nc1ccn(C2CC(CO)[C@H](O)[C@@H]2N)c(=O)n1 (some centres not stated) |  | 50
